# Data as given in US5776886A, “Intravaginal preparation containing physiologically active peptide” (Teikoku Seiyaku Kabushiki Kaisha, priority 1993, dated 1998).
# System: calcium level in the serum
# Experiment: Experiment 3: effects of various sucrose fatty acid esters on serum calcium reduction
# Type: in vivo, Wistar rats
# Conditions: for Reduction rate (%) of calcium level in the serum: rats
# Description: An intravaginal suppository was administered into the rat's vagina, and the blood was collected periodically (2, 4 and 6 hours after administration of the test preparation).
# The serum was separated, and the calcium level in the serum was determined by using a kit for determination of calcium (Calcium C Test Wako; manufactured by Wako Pure Chemical Industries, Ltd.) (n=3).
# In the same manner, there were prepared various sucrose fatty acid esters having the same HLB value but being combined with a different fatty acid (Table B), and four kinds of intravaginal suppositories for rats were prepared by using each 100 mg of sucrose fatty acid ester.
# In the same manner as in Experiment 1, each intravaginal suppository was administered to the rat's vagina, and the blood was collected periodically 2, 4 and 6 hours after administration of intravaginal suppository), and the calcium level in the serum thereof was determined (n=4).
substance,measurement,setting,value
Human calcitonin,Reduction rate (%) of calcium level in the serum,"Ryoto-Sugar Ester (L-1695), HLB 16, lauric acid, + citric acid, intravaginal suppository 20 μg, 2 hr",12.8%
same,Reduction rate (%) of calcium level in the serum,"Ryoto-Sugar Ester (L-1695), HLB 16, lauric acid, + citric acid, intravaginal suppository 20 μg, 4 hr",13.4%
same,Reduction rate (%) of calcium level in the serum,"Ryoto-Sugar Ester (L-1695), HLB 16, lauric acid, + citric acid, intravaginal suppository 20 μg, 6 hr",11.4%
same,Reduction rate (%) of calcium level in the serum,"Ryoto-Sugar Ester (S-370), HLB 3, stearic acid, + citric acid, intravaginal suppository 20 μg, 2 hr",13.4%
same,Reduction rate (%) of calcium level in the serum,"Ryoto-Sugar Ester (S-370), HLB 3, stearic acid, + citric acid, intravaginal suppository 20 μg, 4 hr",18.2%
same,Reduction rate (%) of calcium level in the serum,"Ryoto-Sugar Ester (S-370), HLB 3, stearic acid, + citric acid, intravaginal suppository 20 μg, 6 hr",11.4%
same,Reduction rate (%) of calcium level in the serum,"Ryoto-Sugar Ester (S-570), HLB 5, stearic acid, + citric acid, intravaginal suppository 20 μg, 2 hr",12.8%
same,Reduction rate (%) of calcium level in the serum,"Ryoto-Sugar Ester (S-570), HLB 5, stearic acid, + citric acid, intravaginal suppository 20 μg, 4 hr",17.2%
same,Reduction rate (%) of calcium level in the serum,"Ryoto-Sugar Ester (S-570), HLB 5, stearic acid, + citric acid, intravaginal suppository 20 μg, 6 hr",12.0%
same,Reduction rate (%) of calcium level in the serum,"Ryoto-Sugar Ester (S-770), HLB 7, stearic acid, + citric acid, intravaginal suppository 20 μg, 2 hr",13.6%
same,Reduction rate (%) of calcium level in the serum,"Ryoto-Sugar Ester (S-770), HLB 7, stearic acid, + citric acid, intravaginal suppository 20 μg, 4 hr",14.8%
same,Reduction rate (%) of calcium level in the serum,"Ryoto-Sugar Ester (S-770), HLB 7, stearic acid, + citric acid, intravaginal suppository 20 μg, 6 hr",11.8%
same,Reduction rate (%) of calcium level in the serum,"Ryoto-Sugar Ester (S-970), HLB 9, stearic acid, + citric acid (Table 3), intravaginal suppository 20 μg, 2 hr",12.2%
same,Reduction rate (%) of calcium level in the serum,"Ryoto-Sugar Ester (S-970), HLB 9, stearic acid, + citric acid (Table 3), intravaginal suppository 20 μg, 4 hr",17.4%
same,Reduction rate (%) of calcium level in the serum,"Ryoto-Sugar Ester (S-970), HLB 9, stearic acid, + citric acid (Table 3), intravaginal suppository 20 μg, 6 hr",11.8%
same,Reduction rate (%) of calcium level in the serum,"Ryoto-Sugar Ester (S-1670), HLB 16, stearic acid, + citric acid, intravaginal suppository 20 μg, 2 hr",11.4%
same,Reduction rate (%) of calcium level in the serum,"Ryoto-Sugar Ester (S-1670), HLB 16, stearic acid, + citric acid, intravaginal suppository 20 μg, 4 hr",16.4%
same,Reduction rate (%) of calcium level in the serum,"Ryoto-Sugar Ester (S-1670), HLB 16, stearic acid, + citric acid, intravaginal suppository 20 μg, 6 hr",12.6%
same,Reduction rate (%) of calcium level in the serum,"Ryoto-Sugar Ester L-595 + L-1695 3:2, HLB 9, lauric acid, + citric acid, intravaginal suppository, 2 hr",11.0%
same,Reduction rate (%) of calcium level in the serum,"Ryoto-Sugar Ester L-595 + L-1695 3:2, HLB 9, lauric acid, + citric acid, intravaginal suppository, 4 hr",14.4%
same,Reduction rate (%) of calcium level in the serum,"Ryoto-Sugar Ester L-595 + L-1695 3:2, HLB 9, lauric acid, + citric acid, intravaginal suppository, 6 hr",9.7%
same,Reduction rate (%) of calcium level in the serum,"Ryoto-Sugar Ester P-070 + P-1670 4:5, HLB 9, palmitic acid, + citric acid, intravaginal suppository, 2 hr",8.2%
same,Reduction rate (%) of calcium level in the serum,"Ryoto-Sugar Ester P-070 + P-1670 4:5, HLB 9, palmitic acid, + citric acid, intravaginal suppository, 4 hr",17.3%
same,Reduction rate (%) of calcium level in the serum,"Ryoto-Sugar Ester P-070 + P-1670 4:5, HLB 9, palmitic acid, + citric acid, intravaginal suppository, 6 hr",13.8%
same,Reduction rate (%) of calcium level in the serum,"Ryoto-Sugar Ester S-370 + S-1670 5:6, HLB 9, stearic acid, + citric acid, intravaginal suppository, 2 hr",6.9%
same,Reduction rate (%) of calcium level in the serum,"Ryoto-Sugar Ester S-370 + S-1670 5:6, HLB 9, stearic acid, + citric acid, intravaginal suppository, 4 hr",15.3%
same,Reduction rate (%) of calcium level in the serum,"Ryoto-Sugar Ester S-370 + S-1670 5:6, HLB 9, stearic acid, + citric acid, intravaginal suppository, 6 hr",12.3%
same,Reduction rate (%) of calcium level in the serum,"Ryoto-Sugar Ester S-970 1:0 (control of Table B), HLB 9, stearic acid, + citric acid (Table 4), intravaginal suppository, 2 hr",6.3%
same,Reduction rate (%) of calcium level in the serum,"Ryoto-Sugar Ester S-970 1:0 (control of Table B), HLB 9, stearic acid, + citric acid (Table 4), intravaginal suppository, 4 hr",11.6%
same,Reduction rate (%) of calcium level in the serum,"Ryoto-Sugar Ester S-970 1:0 (control of Table B), HLB 9, stearic acid, + citric acid (Table 4), intravaginal suppository, 6 hr",11.0%
same,promotion effects on absorption of calcitonin,"combination of sucrose fatty acid ester and citric acid, esters of different HLB value and fatty acid",not affected by either the HLB value of the sucrose fatty acid ester to be used or by the kinds of the fatty acids to be combined
